Earlier results, collected in article PMC5918173, “Characterization of Transglutaminase 2 activity inhibitors in monocytes in vitro and their effect in a mouse model for multiple sclerosis” (PLoS ONE, 2018).

Details: proposed; reference not given; cited from earlier work

## O=C(NCC1CC(Br)=NO1)C1CCCN1C(=O)OCc1cnc2ccccc2c1 (stereo not shown) [ERW1041E, 2-[(3-Bromo-4,5-dihydro-isoxazol-5-ylmethyl)-carbamoyl]-pyrrolidine-1—carboxylic acid quinolin-3-ylmethyl ester]
  inhibitory in vivo half-life: 12 h
